The values below come from patent US7875625B2, “Cyclohepta[b]pyridine-3-carbonylguanidine derivative and pharmaceutical product containing same” (Toa Eiyo Ltd., priority 2005, dated 2011).

For orientation: IC50 means the concentration that inhibits the measured activity by half. High values mean a need for much substance, low ones inhibition by little substance.

For data set [1], the target named is T1, Na^+/H^+ exchanger (NHE) (Rattus norvegicus, UniProt P26431).
T1 construct: from tissue; host or cells: platelet-rich plasma from Wistar rat blood
The experiment in a line: NHE inhibitory effect test (swelling of rat platelets induced by sodium propionate). Type of data set: cell-based. As to conditions: rat platelet-rich plasma, sodium propionate buffer pH 6.7; 300 μM Amiloride taken as 100% inhibition; Probit method. On the procedure:
The NHE inhibitory activity was measured according to the method by Scholz et al. [British Journal of Pharmacology, Vol. 109, p. 562-568 (1993)], taking the swelling of rat platelets induced by sodium propionate as an index.
Under etherization, blood was collected (8 mL) from the abdominal aorta of a Wistar rat, and 1 mL of a citrate dextrose solution as an anticoagulant was added. The blood sample was immediately centrifuged at 90×g for 10 minutes, and then the collected supernatant was taken as platelet-rich plasma. Subsequently, to 250 μL of a 140 mM sodium propionate buffer solution containing the test compound dissolved in dimethylsulfoxide (pH 6.7, final dimethylsulfoxide concentration 1%), the platelet-rich plasma prepared in the above (number of platelet; 10×10^6/50 μL) was added, and the decrease in the absorbance associated with the swelling of platelets was measured over time with a Hematracer (NKK Corp.).
The rate of decrease in the absorbance at 20 seconds after the addition of the platelet-rich plasma was taken as the NHE activity, and the inhibitory activity of the respective compounds was expressed as a relative activity, while the action obtained upon addition of 300 μM of Amiloride was taken as 100% inhibition.
In addition, the test results were obtained by calculating the concentration at which the inhibitory activity of the test compound becomes 50% (IC50 value), by a Probit method.

The test system of data set [2] is reperfusion-induced arrhythmia upon myocardial ischemia. The data set can be described thus: Reperfusion-induced arrhythmia inhibitory action test. The format is in vivo, rat. The conditions noted are these: male SD rats, 3.62 mmol/L, 1 mL/kg intravenous, within 10 minutes after reperfusion. The method, then:
Subsequently, in evaluation of the in vivo NHE inhibitory action, the effect of the test compound on reperfusion-induced arrhythmia upon myocardial ischemia was evaluated according to the method of Aihara et al. [European Journal of Pharmacology, Vol. 404, p. 221-229 (2000)]. Under anesthesia using pentobarbital sodium (60 mg/kg, intraperitoneal administration), cannulae were inserted into trachea, femoral vein and carotid artery of male SD rats ([…]) for artificial ventilation, drug administration and blood pressure measurement, respectively. The blood pressure was measured using a strain pressure amplifier via a pressure transducer, while the heart rate was measured from the blood pressure pulse wave using a cardiotachometer. Furthermore, an electrocardiogram (lead II) was measured from the electrodes attached to each four limbs. Next, under artificial ventilation, left thoracotomy was performed and a snare (5-0 nylon) was loosely placed around a blood vessel which was about 3 mm apart from the origin of the left coronary artery. Thereafter, it was confirmed that arrhythmia was not occurred for 10 minutes, and then the snare was fastened to induce local myocardial ischemia. Furthermore, after 4 minutes of myocardial ischemia, the compound was intravenously administered for 1 minute, and after 5 minutes of myocardial ischemia, the snare was loosened, then the arrhythmia occurred after reperfusion was recorded and analyzed with an arrhythmia analyzer (Softron Co., Ltd.), thereby the anti-arrhythmic action of the compound was evaluated. […] The control group was administered with physiological saline.
With regard to the ventricular fibrillation (Vf) which occurred within 10 minutes after reperfusion (in the cases of halfway death, up to the time point where cardiac arrest was confirmed), arrhythmia analysis was performed according to the Guidelines for Lambeth Convention [Cardiovascular research, Vol. 22, p. 447-455, 1988], and evaluation was made in terms of the frequency of Vf occurrence, cumulative duration time of Vf, and the mortality.
The frequency of Vf occurrence, cumulative duration of Vf, and the mortality for the respective test compounds are presented in Table 2.

The nature of data set [3]: Metabolic stability test in rat (generation of control compound in plasma). Type of data set: in vivo. As to conditions: male SD rats. From the text: The compound represented by Formula (1) of the present invention has a structure in which the hydroxyl group on the 9-position of a 9-hydroxymethyl-cyclohepta[b]pyridine-3-carbonylguanidine derivative is converted to a specific substituent. However, if the compound is metabolized in vivo to remove the specific substituent from the compound, there may be generated the original 9-hydroxymethyl-cyclohepta[b]pyridine-3-carbonylguanidine derivative, which has toxic effects on the central nervous system. Thus, the inventive compounds as synthesized in Examples were administered in vivo to study whether the control compound, which was the corresponding 9-hydroxymethyl product, was generated.
Male SD rats (7 weeks old) were administered at 1 mg/kg (an amount calculated excluding salts) of the control compound, an equivalent amount of the Inventive Compound 2, 4, 6, 7 or 12, or Reference Compound 20, through the tail vein. After administration, about 0.2 mL of blood samples were collected after 5, 15, 30, 60 and 120 minutes, and the blood samples were centrifuged at 4° C. at a speed of rotation of 15000 for 15 minutes, thus to separate the supernatant plasma. The concentration of the control compound in the plasma was measured by LC/MS/MS. The measurement results were shown as +++ when the detected plasma concentration of the control compound is 200 ng/mL or greater; ++ for more than 100 ng/mL and less than 200 ng/mL; + for more than 20 ng/mL and less than 100 ng/mL; and − for less than 20 ng/mL or no detection.

The subject of data set [4] is male mice. The experiment in a line: Toxicity test with 2-days repeated intraperitoneal administration in mouse. The format is in vivo. The conditions noted are these: equivalent of 300 mg/kg control compound intraperitoneally once a day for 2 days. The method, then:
For three male mice in each group, 300 mg/kg of the Control Compound (an amount calculated excluding salts), or an equivalent amount of the Inventive Compound 2, 4, 6, 7 or 12 were intraperitoneally administered once a day for 2 days, and a histopathological tests were performed. The Control Compound, and the Inventive Compounds 2, 4 and 6 were suspended in a 0.5% tragacanth gum solution, and the Inventive Compound 7 was suspended in a 10 DMSO-containing 0.5% tragacanth gum solution, while the Inventive Compound 12 was suspended in olive oil. For the histopathological test, in order to make a more thorough examination of central nervous toxicity, the brain was examined after whole body was subjected to perfusion fixation with a 4% formaldehyde in neutral phosphate buffer as a fixing solution using a liquid transporting pump under pentobarbital sodium anesthesia.

The test system of data set [5] is Beagle dogs. The experiment in a line: Toxicity test after 4-days repeated intravenous administration in beagle dogs. Type of data set: in vivo, dog. As to conditions: equivalent of 30 mg/kg control compound intravenously once a day for 4 days. The method, then:
With one male and one female dogs in each group, 30 mg/kg of the Control Compound dissolved in physiological saline (an amount calculated excluding salts), or an equivalent amount of the Inventive Compound 2, 4, 6 or 8 was repeatedly administered intravenously once a day for 4 days, and general symptom observation and pharmacological histopathologic examination were performed.

A short description of data set [6]: Comparative test for transferability to the brain in rat. The format is in vivo. As to conditions: male SD rats, 50 mg/kg via tail vein. On the procedure: To male SD rats (6 weeks old), the Control Compound or the Inventive Compound 2 was administered through the tail vein in an amount of 50 mg/kg. After administration, whole blood samples were collected over time from the abdominal aorta under etherization, and the brain tissues were extracted immediately. The brain tissues were lightly washed off to remove the blood attached around with physiological saline, and subsequently the tissues were frozen in liquid nitrogen and preserved at −30° C. until analyzed. The blood was centrifuged at 4° C. at a rotation speed of 15000 for 15 minutes to separate the supernatant plasma, and was preserved at −30° C. until analyzed. The brain tissues were thawed by standing at ambient temperature, and then the wet weight was measured. Distilled water was added in an amount five times of the wet weight, and a suspension was prepared using a Polytron homogenizer. The measurement of the test compound concentration in the plasma and the brain tissues was performed by LC/MS/MS. The transferability of the drug to the brain was calculated by dividing the drug concentration in the brain tissues by the plasma concentration obtained at the same time.

T1 sequence (P26431 whole entry): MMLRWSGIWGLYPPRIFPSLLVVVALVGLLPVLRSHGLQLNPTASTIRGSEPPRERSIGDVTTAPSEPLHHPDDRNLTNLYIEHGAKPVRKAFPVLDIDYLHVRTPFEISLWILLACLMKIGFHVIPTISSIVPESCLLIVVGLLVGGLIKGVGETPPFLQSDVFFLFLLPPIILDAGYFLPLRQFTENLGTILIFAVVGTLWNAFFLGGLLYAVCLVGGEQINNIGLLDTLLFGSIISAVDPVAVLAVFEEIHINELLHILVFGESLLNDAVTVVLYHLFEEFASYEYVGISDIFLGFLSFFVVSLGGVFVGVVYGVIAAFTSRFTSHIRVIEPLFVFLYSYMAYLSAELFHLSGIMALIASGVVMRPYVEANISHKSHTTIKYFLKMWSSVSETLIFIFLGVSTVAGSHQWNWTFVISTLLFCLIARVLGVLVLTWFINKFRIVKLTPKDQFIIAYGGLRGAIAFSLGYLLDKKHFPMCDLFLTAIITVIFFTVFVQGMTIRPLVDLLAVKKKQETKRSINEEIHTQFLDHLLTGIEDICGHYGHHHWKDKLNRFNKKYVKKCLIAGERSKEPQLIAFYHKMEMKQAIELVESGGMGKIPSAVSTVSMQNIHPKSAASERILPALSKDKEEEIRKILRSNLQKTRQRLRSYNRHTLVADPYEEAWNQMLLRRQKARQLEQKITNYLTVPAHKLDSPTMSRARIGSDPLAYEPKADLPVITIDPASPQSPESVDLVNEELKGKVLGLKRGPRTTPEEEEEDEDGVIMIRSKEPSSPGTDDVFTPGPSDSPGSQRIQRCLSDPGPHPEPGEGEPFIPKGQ

`Cc1nc2c(cc1C(=O)NC(=N)N)CCCCC2COS(=O)(=O)[O-].[Na+]` (stereo not drawn) [Inventive Compound 2, 3-Guanidinocarbonyl-2-methyl-6,7,8,9-tetrahydro-5H-cyclohepta[b]pyridin-9-ylmethyl sulfate sodium salt]: the half-inhibitory concentration (IC50) in data set [1] was 0.143 µM. Moreover, in data set [2], the “Cumulative duration of Vf” value was 13.7 s, the “Frequency of Vf occurrence” value came to 40% and the Mortality is 20%. For the same compound, the “Plasma concentration of the control compound, after 5 min” value in data set [3] (equivalent of 1 mg/kg control compound via tail vein, LC/MS/MS, 5 min) is listed as “− (− for less than 20 ng/mL or no detection)”. In addition, the “Plasma concentration of the control compound, after 15 min” value in data set [3] (equivalent of 1 mg/kg control compound via tail vein, LC/MS/MS, 15 min) is on record as “− (− for less than 20 ng/mL or no detection)”. The “Plasma concentration of the control compound, after 30 min” value in data set [3] (equivalent of 1 mg/kg control compound via tail vein, LC/MS/MS, 30 min) is “− (− for less than 20 ng/mL or no detection)”. The “Plasma concentration of the control compound, after 60 min” value in data set [3] (equivalent of 1 mg/kg control compound via tail vein, LC/MS/MS, 60 min) is “− (− for less than 20 ng/mL or no detection)”. The “Plasma concentration of the control compound, after 120 min” value in data set [3] (equivalent of 1 mg/kg control compound via tail vein, LC/MS/MS, 120 min) is “− (− for less than 20 ng/mL or no detection)”. For the same compound, in data set [3] (tail vein, plasma 5-120 min), the “Decomposition into the Control Compound in vivo (in words)” value is reported as “not detected at any time point”. For the same compound, the “Histopathological finding in the brain” value in data set [4] is recorded as “any histologic finding which could be caused by drug administration was not recognized”. Besides, in data set [5], the “General condition (symptom observation)” value is given as “only vomiting was recognized” and the “Pathologic examination of the brain” value is given as “any histologic finding which could be caused by drug administration was not recognized”. In data set [6] (compared with the Control Compound), the “Transferability to the brain tissues (in words)” value is “decreased transferability to the brain tissues”. Further, the Kp at 15 min in data set [6] (rat, brain/plasma, intravenous, 15 min, read-out: Concentration Intracerebral/Plasma, after 15 min) was determined as 0.29.
